Experimental data from patent US10463666B2, “Pharmaceutical composition comprising progestogens and/or estrogens and 5-methyl-(6S)-tetrahydrofolate” (MERCK & CIE, priority 2005, dated 2019).

How the values were obtained:
[1] = compatibility investigation of binary mixtures with vitamin B12 by DSC; type: physicochemical; parameters: key: ++: good compatibility expected below the stated temperature; +: compatibility below the stated temperature; ++/−: indifferent compatibility, possibly good compatibility below the stated temperature; +/−−: indifferent compatibility, appears to be compatible below the stated temperature; −: (strong) interaction, incompatible; −−−: (strong) interaction, incompatible; details: binary mixture with vitamin B12, DSC, various gases and temperatures
Protocol: Both vitamin B12 and 5-methyl-(6S)-tetrahydrofolate are unstable in the presence of atmospheric oxygen and humidity. […] Measurements of the incompatibilities between the intended formulation ingredients were carried out by a thermoanalytical method (DSC, differential scanning calorimetry). This allows incompatibilities to be recognized through low enthalpies of fusion and melting temperatures. These are caused for example by a reduced proportion of crystalline substance and the increase in impurities. In the determination, binary mixtures of excipients or active ingredients in each case with vitamin B12 were investigated, and the compatibility was examined under the influence of various gases and temperatures. […]

[2] = cited from earlier work

| Molecule | Compatibility [1] | reduction of incidence of neural tube defects ([2]; folic acid fortification of food products, Canada and Chile) | reduction of neural tube defects ([2]; intake at the right time around conception) |
| --- | --- | --- | --- |
| C[C@]12CCC(=O)C=C1[C@@H]1C[C@@H]1[C@H]1[C@@H]3[C@@H]4C[C@@H]4[C@@]4(CCC(=O)O4)[C@@]3(C)CC[C@@H]12 [Drospirenone] | + | – | – |
| OC[C@H]1O[C@@H](O[C@H]2[C@H](O)[C@@H](O)C(O)O[C@@H]2CO)[C@H](O)[C@@H](O)[C@H]1O (some centres unmarked) [Lactose] | + | – | – |
| Nc1nc2ncc(CNc3ccc(C(=O)N[C@@H](CCC(=O)O)C(=O)O)cc3)nc2c(=O)[nH]1 [folic acid] | – | more than 50% | 50-70% |
| Magnesium stearate | ++/− | – | – |
